Patent US10925856B2, “Methods and compositions involving bucindolol for the treatment of atrial fibrillation” (priority 2018, dated 2021)

Experiments:
[1] = in vivo; cited from earlier work
[2] = Systolic blood pressure and heart rate by scheduled visit; assay type: in vivo, human
From the text: Block is defined as the first of any of the following: 1) 3rd degree heart block (complete heart block); 2) any 2nd degree heart block with the presence of symptoms attributable to, and temporally correlated with the occurrence of heart block which include any of the following: Near-fainting or fainting (syncope)/Dizziness; Weakness or Fatigue; Shortness of breath; Chest pain; or 3) 2nd or 3rd degree heart block requiring implantation of a permanent pacemaker (with or without defibrillator). • Data source: • CVEVENT and AE eCRF forms. • Overall incidence and severity of treatment-emergent AEs/SAEs over time during the Total Study Period. Also events associated with device implantation. […] The AEs of special interest will be tabulated according to the following characteristics. • Development of treatment-emergent neoplastic conditions. • Progression or worsening of pre-study neoplastic conditions. • Progression or worsening of treatment-emergent neoplastic conditions. • Data source: • AE, NEOPLHX and NEOPLAS eCRF forms. • Clinical Chemistry and Hematology. • Visit collection: screen, start of follow-up Week 0 (protocol versions 1 and 2), Week 4 (protocol versions 3 and 4), Week 12 (protocol versions 3 and 4), Week 24, every 24 weeks during extension, end of treatment and end of study. […] Randomization Visit measurement prior to first dose will serve as the baseline. Will be analyzed at Week 0, 4, 12 and 24 visits as well as end of treatment and end of study. • Change from baseline to each analysis visit will be calculated and analyzed with descriptive statistics. • The numbers and percentages of patients with QTc increase from baseline exceeding 60 ms at any time point during the study. • Data source: • ECG eCRF form. • Vital signs and weight (data source: VITALS eCRF form). • Measured at every in-clinic visit. Randomization Visit measurement prior to first dose will serve as the baseline. Will be analyzed at Week 0, 4, 12 and 24 visits as well as end of treatment and end of study. • Change from baseline to each analysis visit will be calculated and analyzed with descriptive statistics. • Data source: • VITALS eCRF form. • Proportion of patients attaining target study drug dose during the Drug Titration Period. Will be calculated for all patients, those receiving β-blocker therapy prior to randomization and those not previously receiving β-blocker therapy. • Data Sources: • VISREC and DRUGLOG eCRF forms.

NT-proBNP = assay: Plasma NT-proBNP (electrochemiluminescence immunoassay)
[3] = Europe excluding Hungary (n = 48)
[4] = change from baseline, Canada (n = 59)
[5] = change from baseline, Entire Cohort (n = 267)
[6] = change from baseline, Europe excluding Hungary (n = 48)
[7] = change from baseline, Hungary (n = 33)
[8] = change from baseline, U.S. (n = 127)

COCCc1ccc(OCC(O)CNC(C)C)cc1 (stereo not drawn) [metoprolol, metoprolol succinate, reference compound]
Bioavailability [1]: approximately 50%
Heart rate reduction ([2]; 4, 12 and 24 weeks): greater heart rate reduction
Heart Rate, Baseline Mean ± SEM ([2]; in vivo): 76.0 ± 1.5 bpm
Heart Rate, Baseline Min, Max ([2]; in vivo): 43.0, 119
Systolic Blood Pressure, Baseline Mean ± SEM ([2]; in vivo): 121.8 ± 1.4 mmHg
Systolic Blood Pressure, Baseline Min, Max ([2]; in vivo): 90.0, 149
NT-proBNP, Week 4 Mean (NT-proBNP; Canada): 1715 pg/mL
NT-proBNP, Week 4 Median (NT-proBNP; Canada): 1067 pg/mL
NT-proBNP, ΔWeek 4 Mean ± SEM (NT-proBNP; Canada): -91 pg/mL
NT-proBNP, ΔWeek 4 Median (NT-proBNP; Canada): -101 pg/mL
NT-proBNP, Baseline Mean ± SD (NT-proBNP; Canada (n = 59)): 1646 ± 2303 pg/mL
NT-proBNP, Baseline Median (NT-proBNP; Canada (n = 59)): 913 pg/mL
NT-proBNP, Week 12 Mean ± SD (NT-proBNP; Canada (n = 59)): 1338 ± 1504 pg/mL
NT-proBNP, Week 12 Median (NT-proBNP; Canada (n = 59)): 845 pg/mL
NT-proBNP, Week 24 Mean ± SD (NT-proBNP; Canada (n = 59)): 1382 ± 1974 pg/mL
NT-proBNP, Week 24 Median (NT-proBNP; Canada (n = 59)): 623 pg/mL
NT-proBNP, Week 4 Mean (NT-proBNP; Entire Cohort): 1212 pg/mL
NT-proBNP, Week 4 Median (NT-proBNP; Entire Cohort): 792 pg/mL
NT-proBNP, ΔWeek 4 Mean ± SEM (NT-proBNP; Entire Cohort): -50 pg/mL
NT-proBNP, ΔWeek 4 Median (NT-proBNP; Entire Cohort): -35 pg/mL
NT-proBNP, Baseline Median (NT-proBNP; Entire Cohort (n = 267)): 861 pg/mL
NT-proBNP, Week 12 Mean ± SD (NT-proBNP; Entire Cohort (n = 267)): 1134 ± 1197 pg/mL
NT-proBNP, Week 12 Median (NT-proBNP; Entire Cohort (n = 267)): 652 pg/mL
NT-proBNP, Week 24 Mean ± SD (NT-proBNP; Entire Cohort (n = 267)): 1334 ± 1732 pg/mL
NT-proBNP, Week 24 Median (NT-proBNP; Entire Cohort (n = 267)): 661 pg/mL
NT-proBNP, Week 4 Mean (NT-proBNP; Europe excluding Hungary): 820 pg/mL
NT-proBNP, Week 4 Median (NT-proBNP; Europe excluding Hungary): 433 pg/mL
NT-proBNP, ΔWeek 4 Mean ± SEM (NT-proBNP; Europe excluding Hungary): -117 pg/mL
NT-proBNP, ΔWeek 4 Median (NT-proBNP; Europe excluding Hungary): -93 pg/mL
NT-proBNP, Baseline Mean ± SD (NT-proBNP; [3]): 883 ± 880 pg/mL
NT-proBNP, Baseline Median (NT-proBNP; [3]): 521 pg/mL
NT-proBNP, Week 12 Mean ± SD (NT-proBNP; [3]): 867 ± 885 pg/mL
NT-proBNP, Week 12 Median (NT-proBNP; [3]): 526 pg/mL
NT-proBNP, Week 24 Mean ± SD (NT-proBNP; [3]): 1108 ± 962 pg/mL
NT-proBNP, Week 4 Mean (NT-proBNP; Hungary): 812 pg/mL
NT-proBNP, Week 4 Median (NT-proBNP; Hungary): 803 pg/mL
NT-proBNP, ΔWeek 4 Mean ± SEM (NT-proBNP; Hungary): -11 pg/mL
NT-proBNP, ΔWeek 4 Median (NT-proBNP; Hungary): -40 pg/mL
NT-proBNP, Baseline Mean ± SD (NT-proBNP; Hungary (n = 33)): 781 ± 458 pg/mL
NT-proBNP, Baseline Median (NT-proBNP; Hungary (n = 33)): 785 pg/mL
NT-proBNP, Week 12 Mean ± SD (NT-proBNP; Hungary (n = 33)): 864 ± 876 pg/mL
NT-proBNP, Week 12 Median (NT-proBNP; Hungary (n = 33)): 593 pg/mL
NT-proBNP, Week 24 Mean ± SD (NT-proBNP; Hungary (n = 33)): 1150 ± 784 pg/mL
NT-proBNP, Week 24 Median (NT-proBNP; Hungary (n = 33)): 1019 pg/mL
NT-proBNP, Week 4 Mean (NT-proBNP; U.S.): 1227 pg/mL
NT-proBNP, Week 4 Median (NT-proBNP; U.S.): 831 pg/mL
NT-proBNP, ΔWeek 4 Mean ± SEM (NT-proBNP; U.S.): -14 pg/mL
NT-proBNP, ΔWeek 4 Median (NT-proBNP; U.S.): -27 pg/mL
NT-proBNP, Baseline Mean ± SD (NT-proBNP; U.S. (n = 127)): 1499 ± 2033 pg/mL
NT-proBNP, Baseline Median (NT-proBNP; U.S. (n = 127)): 982 pg/mL
NT-proBNP, Week 12 Mean ± SD (NT-proBNP; U.S. (n = 127)): 1224 ± 1240 pg/mL
NT-proBNP, Week 12 Median (NT-proBNP; U.S. (n = 127)): 661 pg/mL
NT-proBNP, Week 24 Mean ± SD (NT-proBNP; U.S. (n = 127)): 1374 ± 1839 pg/mL
NT-proBNP, Week 24 Median (NT-proBNP; U.S. (n = 127)): 547 pg/mL
NT-proBNP, ΔWeek 12 Mean ± SEM (NT-proBNP; [4]): -482 ± 355 pg/mL
NT-proBNP, ΔWeek 12 Median (NT-proBNP; [4]): -36 pg/mL
NT-proBNP, ΔWeek 24 Mean ± SEM (NT-proBNP; [4]): -489 ± 361 pg/mL
NT-proBNP, ΔWeek 24 Median (NT-proBNP; [4]): -106 pg/mL
NT-proBNP, ΔWeek 12 Mean ± SEM (NT-proBNP; [5]): -135 ± 124 pg/mL
NT-proBNP, ΔWeek 12 Median (NT-proBNP; [5]): -50 pg/mL
NT-proBNP, ΔWeek 24 Median (NT-proBNP; [5]): -100 pg/mL
NT-proBNP, ΔWeek 12 Mean ± SEM (NT-proBNP; [6]): -70 ± 184 pg/mL
NT-proBNP, ΔWeek 12 Median (NT-proBNP; [6]): -20 pg/mL
NT-proBNP, ΔWeek 24 Mean ± SEM (NT-proBNP; [6]): -133 ± 153 pg/mL
NT-proBNP, ΔWeek 24 Median (NT-proBNP; [6]): -101 pg/mL
NT-proBNP, ΔWeek 12 Mean ± SEM (NT-proBNP; [7]): +45 ± 190 pg/ml
NT-proBNP, ΔWeek 12 Median (NT-proBNP; [7]): +75 pg/ml
NT-proBNP, ΔWeek 24 Mean ± SEM (NT-proBNP; [7]): +201 ± 219 pg/ml
NT-proBNP, ΔWeek 24 Median (NT-proBNP; [7]): +150 pg/ml
NT-proBNP, ΔWeek 12 Mean ± SEM (NT-proBNP; [8]): -63 ± 190 pg/mL
NT-proBNP, ΔWeek 12 Median (NT-proBNP; [8]): -99 pg/mL
NT-proBNP, ΔWeek 24 Mean ± SEM (NT-proBNP; [8]): -158 ± 258 pg/mL
NT-proBNP, ΔWeek 24 Median (NT-proBNP; [8]): -135 pg/mL
NT-proBNP, ΔWeek 4 Median (NT-proBNP; change from baseline, entire cohort): -35 pg/mL
NT-proBNP decrease (NT-proBNP; end of the 24-week follow-up period, U.S.): 20%
